Assay results as given in article PMC8448819, “The Arabidopsis MIK2 receptor elicits immunity by sensing a conserved signature from phytocytokines and microbes” (Nature Communications, 2021).

What was measured:
[1] = tested on: mik2-like, rlk7, pepr1,2, hae/hsl2 and fls2 mutant seedlings; assay: Root growth assay, other receptor kinase mutants; type: in vivo, Arabidopsis thaliana; details: Supplementary Fig. 4c
Source text: The Arabidopsis thaliana accession Columbia-0 (Col-0) was used as wild type (WT). T-DNA insertion mutants of mik2-1 (SALK_061769), mik2-2 (SALK_046987), mik2-like (SALK_112341), and rlk7-3 (SALK_120595) were obtained from the Nottingham Arabidopsis Stock Centre (NASC). The fls2 (SALK_141277), bak1-4, bik1-1/pbl1-1, bak1-5/serk4-1, rbohd mutants, and the transgenic line expressing p35S::GFP have been reported previously[19],[62],[63]. The hae/hsl2 mutant was kindly provided by Dr. Reidunn B. Aalen (University of Oslo, Norway), the pepr1-2/pepr2-2 (pepr1,2) mutant by Dr. Zhi Qi (Inner Mongolia University, China), the scoop12 mutant by Dr. Sébastien Aubourg (INRA, France), a transgenic line expressing p35S::Aequorin by Dr. Marc Knight (Durham University, UK), transgenic line expressing pMYB51::GUS by Dr. Frederick M. Ausubel (Harvard Medical School, USA). […]
Cold stratified seeds were surface-sterilized with 70% (v/v) ethanol for 5 min and were sown on ½MS plates with or without peptides at indicated concentrations. Ten-day-old seedlings grown on plates vertically in a growth chamber were photographed, and the root lengths of seedlings were measured using Image J (http://rsb.info.nih.gov/ij/).

Arabidopsis leaf disks = assay: Ethylene production; type: in vivo, Arabidopsis thaliana; details: Fig. 2j, leaf disks of 4-week-old plants, peptides at 1 µM, 23 °C, 4 h, GC-FID
Description: Twelve leaves of 4-week-old plants grown on soil were excised into leaf disks of 0.25 cm^2, followed by overnight incubation in a 25 mL glass vial with 2 mL of ddH2O for recovery. Then, ddH2O was replaced by 1 mL of peptides at 1 µM, and the vials were capped immediately with a rubber stopper and incubated at 23 °C with gentle agitation for 4 h. One mL of the vial headspace was injected into a TRACE^TM 1310 Gas Chromatograph (Thermo Fisher Scientific) with FID supported by Chromeleon 7 for quantitation.

[2] = tested on: MYB51 promoter, pMYB51::GUS seedling roots; assay: Histochemical GUS staining, pMYB51::GUS; type: in vivo, Arabidopsis thaliana; details: pMYB51::GUS seedlings, 1 µM, 3 h
Source text: Stained samples were fixed with a 3:1 ethanol:acetic acid solution overnight and cleared by lactic acid and photographed with the Olympus SZX10 stereoscopic microscope equipped with DP27 camera.

[3] = tested on: WRKY30, WRKY33 and CYP81F2 expression, WT seedlings; assay: RT-qPCR of defense genes, WT; type: in vivo, Arabidopsis thaliana
[4] = tested on: WRKY30, WRKY33 and CYP81F2 expression, mik2 seedlings; assay: RT-qPCR of defense genes, mik2 mutants; type: in vivo, Arabidopsis thaliana
[5] = tested on: gene expression, WT Col-0 seedlings; assay: RNA-Seq, WT Col-0; type: in vivo, Arabidopsis thaliana; details: for gene expression fold change: WT, 1 μM PIP1 vs Ctrl, 1 h
Description: Seedlings were then treated with or without 1 μM PIP1 or SCOOP12 for 1 or 6 h and harvested for RNA isolation. Total RNAs (5 μg) from two biological replicates were pooled for cDNA library construction. cDNA library preparation and sequencing were carried out on an Illumina HiSeq 4000 platform with 150-nucleotide pair-end reads in LC-BIO (Hangzhou, China). Total reads were mapped to the Arabidopsis genome (TAIR10; www.arabidopsis.org) with Hisat, and the read counts for every gene were generated with StringTie. The expression levels of genes were calculated by quantifying the cDNA fragments per kilobase of transcript per million fragments mapped (FPKM). Differentially expressed genes (DEGs) between different treatments were defined by fold change of read counts at 1 and 6 h compared to that at 0 h (differential expression analysis using edgeR, fold change ≥ 2 with p-value ≤ 0.01). DEGs were listed in Supplementary Data 2.

Arabidopsis = details: cited from earlier work
Source text: Some plant LRR-RKs are pattern recognition receptors (PRRs) that recognize pathogen- or microbe-associated molecular patterns (PAMPs or MAMPs) or damage-associated molecular patterns (DAMPs) and initiate pattern-triggered immunity (PTI)[10]-[13]. […] Despite the differ ... || Plant plasma membrane-resident RKs perceive diverse exogenous and endogenous signals via the extracellular domain and activate intracellular responses through the cytoplasmic kinase domain[1]-[3]. The chimeric receptors with the swapped extracellular and intracellular domains between different RKs have been used to study the specificity of signal perception and signaling activation[48]-[52]. The extracellular domains of RKs determine the ligand-binding specificity[50],[51],[53]. The intracellular kinase domains of different RKs also trigger specific responses. […] It remains unknown why plants have evolved so many SCOOPs and the functional specificity for different SCOOPs. […] SCOOP12, the most studied SCOOP, is highly expressed in roots (Fig. 2b), and was indicated to regulate ro ...

In the case of “PNGDIFTGPSGSGHGGGR [SCOOP10B, synthesized SCOOP peptide corresponding to the SxS motif]”, the “response of fls2” value ([1]; fls2, root growth) was “responded to SCOOP10^B similarly to WT plants”, the “response of MIK2L, RLK7, PEPR1, PEPR2, HAE and HSL2 mutants” value ([1]; root growth) was “not involved in responsiveness to SCOOP10^B” and the ethylene production (Arabidopsis leaf disks; repeat 1) was 2.0449 ppm. The ethylene production (Arabidopsis leaf disks; repeat 2) was 1.4942 ppm, the ethylene production (Arabidopsis leaf disks; repeat 3) was 1.8726 ppm and the “MYB51 promoter activity in roots” value [2] was “induced the promoter activities of MYB51”. For the same substance, the “WRKY30, WRKY33 and CYP81F2 expression” value ([3]; 1 µM, 1 h, RT-qPCR) was “upregulation”, the “CYP81F2 expression (Fig. 3i)” value ([3]; repeat 1) was 82.36 and the “CYP81F2 expression (Fig. 3i)” value ([3]; repeat 2) was 146.22. For the same substance, the “CYP81F2 expression (Fig. 3i)” value ([3]; repeat 3) was 132.08, the “CYP81F2 expression (Fig. 3i)” value ([3]; repeat 4) was 187.19 and the “CYP81F2 expression (Fig. 3i)” value ([4]; mik2-1, repeat 1) was 1.45. The “CYP81F2 expression (Fig. 3i)” value ([4]; mik2-1, repeat 2) was 1.97, the “CYP81F2 expression (Fig. 3i)” value ([4]; mik2-1, repeat 3) was 3.18 and the “CYP81F2 expression (Fig. 3i)” value ([4]; mik2-1, repeat 4) was 1.68. The “CYP81F2 expression (Fig. 3i)” value ([4]; mik2-2, repeat 1) was 1.42, the “CYP81F2 expression (Fig. 3i)” value ([4]; mik2-2, repeat 2) was 2.13 and the “CYP81F2 expression (Fig. 3i)” value ([4]; mik2-2, repeat 3) was 3.67. The “CYP81F2 expression (Fig. 3i)” value ([4]; mik2-2, repeat 4) was 5.95 and the “WRKY30, WRKY33 and CYP81F2 expression” value ([4]; mik2 mutants, 1 µM, 1 h, RT-qPCR) was “abolished in mik2 mutants”.

For “RLASGP(OH)SPRGRGH [PIP1, secreted peptide, ligand of RLK7]”, the “overlap of MIK2 kinase domain-upregulated genes with PIP1-upregulated genes in WT” value ([5]; 746 out of 1205 genes of PIP1-treated RLK7^ECD-MIK2^TK/rlk7) was 61.9%, the “expression of SCOOP genes” value ([5]; WT seedlings) was “not in WT plants” and the “gene expression fold change” value ([5]; gene AT1G56242) was 13807.76. For the same substance, the “gene expression fold change” value ([5]; gene AT1G69920) was 473.83, the “gene expression fold change” value ([5]; gene AT3G60120) was 45141.52 and the “BIK1 dependence of responses” value (Arabidopsis) was “BIK1-independent”.
